Our source for the cytotoxicity values is ChEMBL document CHEMBL3507680, “University of Dundee, Gates Library screen for HepG2 cell viability”.

The nature of this series: Human HepG2 cell viability assay in 384 well format. It is filed as toxicity, cell-based. The arrangement: dose 125 nL, time 70.5 hour; concentration not given beside the values. The note with it: HepG2 cells, read-out: Inhibition.

As to `COc1cc(NCc2cccnc2)c(-c2nn[nH]n2)cc1OC`, the cytotoxicity at 70.5 h is -11.1%.
For `COc1ccc(-c2cc(C3(O)CCCC3)on2)cc1`, the cytotoxicity at 70.5 h turned out to be 1.51%.
The value for `Nc1nnc(Cn2nnc(-c3ccccc3F)n2)s1` was -12.8%; that for `Nc1nnnn1NCc1cccc2ccccc12` was -11.8%.
As for `CCCC(C)(O)c1cc(C(N)=O)no1` (configuration not stated), the figure is -9.46%; as for `Clc1cccc(-n2cnnn2)c1N1CCCCC1`, 29.1%; as for `Clc1cccc(-n2cnnn2)c1N1CCOCC1`, -5.42%.
As for `COc1c(CC2CC(C(=O)O)=NO2)c(Br)c2c(c1OC)OCO2` (configuration not stated), the figure is -7.83%.
Turning to `COc1c(CC2CC(CO)=NO2)c(Br)c2c(c1OC)OCO2` (configuration not stated), the cytotoxicity at 70.5 h is -0.342%.
On to `COc1cc(CC2CC(c3ccc4c(c3)OCO4)=NO2)cc2c1OCO2` (configuration not stated), for which the cytotoxicity at 70.5 h was -9.64%.
As for `COc1cc(C2SCC(=O)Nc3[nH]ncc32)c(OC)c2c1OCO2` (configuration not stated), the figure is -12.7%; as for `COc1c(C2CC(=O)Nc3[nH]ncc32)cc2c(c1OC)OCO2` (configuration not stated), -13.5%; as for `O=C1CC(c2cccc(Cl)c2)c2snc(C(=O)O)c2N1` (configuration not stated), -5.92%.
As for `CC(=O)c1c(O)ccnc1C(F)(F)F`, the cytotoxicity at 70.5 h was -3.79%.
As for `Cc1cc2ccccc2n1CC(=O)NCC(=O)N1CCOCC1`, the figure is -13.2%; as for `O=C(c1cc(-c2cccs2)cs1)N1CCOCC1`, -8.23%; as for `CCN1CCN(C(=O)c2cc(-c3cccs3)cs2)CC1`, 15.8%.
The value for `O=C(NC1CCCC1)c1cc(Sc2ncccn2)ccn1` was -13.6%; that for `Cc1cc(C(=O)Nc2cnn(CC(F)(F)F)c2)nc(N2CCOCC2)n1` was -13.4%; that for `Cc1c(NC(=O)c2cccc(Br)c2)c(C(=O)N(C)C)nn1C` was 22.7%.
`CCn1nc(C)c(C(=O)NCc2csc(C3CC3)n2)c1C`: the cytotoxicity at 70.5 h amounted to 1.51%.
As for `Cc1cccc2c1cnn2CCC(=O)NCc1csc(C2CC2)n1`, the figure is -8.07%.
The value for `Cc1ccnn1CC(=O)Nc1cc(-c2ccncc2)[nH]n1` was -6.24%; that for `CN1CCN(C(=O)c2cc(-c3ccco3)cs2)CC1` was -20.5%; that for `CC1CCCN(C(=O)c2cc(-c3ccco3)cs2)C1` (configuration not stated) was -14.8%.
As for `CC1CCCN(C(=O)c2ccc(-c3ccco3)o2)C1` (configuration not stated), the figure is -22.7%.
In the case of `CCn1cc(N2Cc3nc(N4CCC(O)CC4)ncc3C2=O)cn1`, the cytotoxicity at 70.5 h is 2.23%.
For the compound `Cc1nc(Nc2cnccn2)cc(C2CCN(c3ncccn3)C2)n1` (configuration not stated), the cytotoxicity at 70.5 h is -12.7%.
As for `CN[C@H]1CC[C@]2(CC1)CNC(=O)c1cc(C)ccc1O2`, the figure is -8.44%.
For `CC(=O)N(C)[C@H]1CC[C@]2(CC1)CNC(=O)c1cc(C)ccc1O2`, the cytotoxicity at 70.5 h was -11.3%.
As for `COCC(=O)N1CCCCC1c1ccncn1` (configuration not stated), the figure is 10.7%; as for `O=C(O)COc1ccccc1CN1CCCC1c1cnccn1` (configuration not stated), -9.06%; as for `COCC(=O)N1CCC(C(=O)c2cc(C)cnc2N)CC1`, -1.24%.
For the compound `COCCC(=O)N1CCC(C(=O)c2cc(C)cnc2N)CC1`, the cytotoxicity at 70.5 h was -8.64%.
As for `COCC(=O)N1CCCCC1c1ccnc(Nc2cnccn2)n1` (configuration not stated), the figure is -7.98%.
As for `Cc1nc(C2CCCN2C(=O)COc2ccccc2)ncc1C(N)=O` (configuration not stated), the figure is -4.1%; as for `Cc1nc(C2CCCN2C(=O)Cc2ccc(F)cc2)ncc1C(N)=O` (configuration not stated), -8.28%.
The value for `Cc1noc(C)c1-c1cncc(C2CCCN2Cc2ncccc2F)n1` (configuration not stated) was -6.52%.
Take `CNc1cc(C2CCCN(Cc3ccccc3OCC(=O)O)C2)ccn1` (configuration not stated): the cytotoxicity at 70.5 h is -8.72%.
The value for `O=C(N1CCCCC1)N1CCCC(c2ncncc2-c2ccncc2)C1` (configuration not stated) was -8.3%; that for `CC(=O)N1CCCC(c2ncncc2-c2ccncc2)C1` (configuration not stated) was -7.71%.
For `COc1ccc(C2Nc3cc(Cl)ccc3C3=NCCN32)cc1O` (configuration not stated), the cytotoxicity at 70.5 h was -1.91%.
Consider `Cc1nn(C)c(C)c1-c1cnc(C2CCCN(S(C)(=O)=O)C2)cn1` (configuration not stated), for which the cytotoxicity at 70.5 h was -9.63%.
As for `Cc1cc(CCC(N)=O)cc(C2CCCN2Cc2cnc(C)nc2)n1` (configuration not stated), the figure is -7.32%; as for `Cc1cc(N2CCCC2c2cncc(N(C)C)n2)ncn1` (configuration not stated), 1.3%.
Take `Cc1ccnc(C2CCCN2C(=O)CN(C)C)n1` (configuration not stated): the cytotoxicity at 70.5 h is -1.48%.
The value for `Cc1cccc(C(=O)N2CC(Cc3nccc4ccn(C)c34)C2)n1` was 1.37%; that for `Cc1nc(C2CCCN2C(=O)c2ccc(F)cc2)ncc1C(N)=O` (configuration not stated) was -3.31%; that for `CC(=O)N1CCN(c2cc(C3CN(C(C)=O)CCO3)nc(C)n2)CC1` (configuration not stated) was -4.45%.
The value for `COc1ccccc1CN1CCC(c2nn(CCN)c3nccnc23)C1` (configuration not stated) was -0.747%; that for `Cc1ccccc1CN1CCC(c2nn(CCN)c3nccnc23)C1` (configuration not stated) was -0.306%; that for `CCC(CC)C(=O)N1CCC(c2nn(CCN)c3nccnc23)C1` (configuration not stated) was -4.84%.
Turning to `O=C(CC1CCCCC1)N1CCC(c2ncc3c(n2)CCNC3)CC1`, the cytotoxicity at 70.5 h was -7.09%.
The value for `CCC(=O)N1CCC(c2ncc3c(n2)CCNC3)CC1` was -4.58%; that for `CN1CCCCC1c1ncc2c(n1)CCN(CCCc1ccccc1)C2` (configuration not stated) was 16.2%; that for `O=C(C1CCCC1)N1CCC(c2ncc3c(n2)CCNC3)C1` (configuration not stated) was -5.84%.
As for `NC(=O)CN1CCCC(c2nccnc2Oc2cccc(F)c2)C1` (configuration not stated), the figure is -9.46%.
Take `Cc1cccc(CN2CCC(C3Nc4ccccc4S(=O)(=O)N3)CC2)n1` (configuration not stated): the cytotoxicity at 70.5 h is -2.6%.
Take `Cc1ccc2c(c1)C(=O)NCC1(CCN(C(=O)c3sccc3C)CC1)O2`: the cytotoxicity at 70.5 h was -5.39%.
Take `Cc1ccc2c(c1)C(=O)NCC1(CCN(C(=O)c3cnccn3)CC1)O2`: the cytotoxicity at 70.5 h was -11%.
`Cc1cc2c(=O)n3c(nc2s1)CCN(C(=O)c1ccnn1C)CC3`: the cytotoxicity at 70.5 h is -8.17%.
As for `CCCC(=O)N1CCC(c2cc3n(n2)[C@@H](C(F)(F)F)C[C@@H](C)N3)CC1`, the figure is -3.97%; as for `Cc1ccc(S(=O)(=O)N2C[C@H]3C[C@H](NC(=O)c4cscn4)[C@H]3C2)cc1`, 9.07%; as for `Cc1ccc(-c2cc(N)c(=O)n(C(C)C(=O)NCC3CCCCC3)n2)s1` (configuration not stated), 18%.
As for `Cc1ccc(-c2cc(N)c(=O)n(CC(=O)NC3CCCC3)n2)s1`, the figure is 13%.
For the compound `Cc1ccc2c(c1)C(=O)NCC1(CCN(C(=O)c3csc(C)c3)CC1)O2`, the cytotoxicity at 70.5 h is -9.12%.
`Cc1ccc2c(c1)C(=O)NCC1(CCN(C(=O)c3scnc3C)CC1)O2`: the cytotoxicity at 70.5 h is -6.59%.
As for `O=c1c2sccc2nc2n1CCN(Cc1ccsc1)CC2`, the figure is 17.3%; as for `CCOc1ccc(CN2CCc3nc4ccsc4c(=O)n3CC2)cc1`, -6.57%; as for `c1cncc(-c2nccc(CN3CCC(N4CCCCC4)CC3)n2)c1`, 18.5%.
Consider `CCn1cc(CN2C[C@@H]3CCCN3C[C@@H]2CCSC)cn1`, for which the cytotoxicity at 70.5 h is -2.81%.
The value for `Cc1cc(C[C@@H]2COC[C@H]2NCc2ccc(C(F)(F)F)cc2)on1` was -5.79%.
